Laboratory results as given in patent publication US20120264811A1, “Elongator Proteins and Use Thereof as DNA Demethylases” (The University of North Carolina at Chapel Hill, priority 2009, published 2012).
Entries after “also recorded” stand apart in the source; their conditions may differ.

What was measured:
[1] = tested on: NIH3T3 cells that stably express CxxC-EGFP; assay: CxxC-EGFP reporter dot formation in NIH3T3 cells; assay type: cell-based, mouse; conditions: 5 μM for 72 hours
[2] = tested on: paternal DNA demethylation; assay: chemical injection into oocytes, paternal DNA demethylation; assay type: cell-based, mouse; conditions: approximately 10 pl of 10 μM in ethanol injected; final concentration estimated 0.4 μM
Procedure: For chemical injection, approximately 10 pl of 3,5-Di-tert-butyltoluene and butylated hydroxytoluence (Sigma Aldrich) at the concentration of 10 μM in ethanol were injected with H3.3-mRFP1 mRNA. The final chemical concentration is estimated as
0.4 μM based on an estimated mouse oocyte volume of 270 pl. The final estimated ethanol concentration is about 4%. For determination of knockdown efficiency, RNA isolated from 10-20 zygotes at PN4-5 stage was used for reverse transcription using the SuperScript III Cell Direct cDNA synthesis kit (Invitrogen) followed by quantitative PCR (qPCR) using SYBR GreenER (Invitrogen). Results were normalized with 18S rRNA as a standard.

Structure (SMILES)	number and intensity of GFP bright dots (nuclear dot-formation of CxxC probe) [1]	paternal DNA demethylation after chemical injection [2]
Nc1ncn([C@H]2C[C@H](O)[C@@H](CO)O2)c(=O)n1 [5-Aza-dC, 5-Aza-2′ deoxycytidine]	clear increase; also recorded: Enhanced nuclear dot-formation	–
Cc1cc(C(C)(C)C)c(O)c(C(C)(C)C)c1 [butylated hydroxytoluene]	–	blocked DNA demethylation
